These results are taken from patent publication US7745450B2, “Pyrazolo[4,3-d]pyrimidines, processes for their preparation and methods for therapy” (Institute of Experimental Botany, priority 2002, dated 2010).

One may read the pIC50 as the IC50 on a negative log10 scale, so that one unit is a factor of ten. By GI50 is commonly meant the concentration that inhibits growth by half. The term melting point denotes the temperature of the solid-liquid transition.

One series relates to DNA synthesis. Description: Inhibition of DNA synthesis in Xenopus egg extracts. The series is classed as biochemical. Particulars: [α-32P]dATP incorporation after 3 h. Here is the method: Metaphase-arrested Xenopus egg extracts were prepared as described previously by Blow “J. Cell Biol.” 1993; 122:993 and stored in liquid nitrogen. Demembranated Xenopus sperm nuclei were prepared as described. by Blow & Laskey “Cell” 1986; 47:577. After thawing, extracts were supplemented with 25 mM phosphocreatine, 5 μg/ml creatine phosphokinase, 250 μg/ml cycloheximide, [α-^32P]dATP (for DNA synthesis assays). Demembranated sperm nuclei were added to a final sperm concentration of 3 ng/μl DNA extract and CDK inhibitor tested was then added at different concentrations. […] DNA synthesis was assessed by releasing extract into interphase by the addition of 0.3 mM CaCl2 and measuring the total amount of [α-^32P]dATP incorporation after 3 h by TCA co-precipitation.

Series [1] has as its target cdc2a-MS protein (plant CDK, cdc2Ms kinase) (Vicia faba, UniProt A0AAV0YZ35). Description: CDK inhibitory activity on plant kinases (plant CDK). Format: biochemical. Particulars: histone H1 phosphorylation. Here is the method:
Protein extraction and purification of pant CDK by binding to p13^suc1-beads or immunopurification with an antibody specific to the cdc2a-MS protein was carried out as described previously (Bögre et al. 1997, Plant Physiol. 113, 1997, 841-852). The MMK1 protein kinase was purified with a specific antibody from Vicia faba extracts as described by Bögre et al. 1997a, Plant Cell 9, 75-83). Protein kinase activity was measures as described above in Example 20. The quantification of radioactivity incorporated into histone H1 or myelin basic protein was undertaken using phosphoimager (FIG. 2).

The test system of series [2] is CEM (human lymphoblastoid leukemia). Description: In vitro cytotoxic activity, Calcein AM. The series is classed as cell-based. Particulars: three days. In a few lines: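 CEM cells were seeded at 10^4/well in DMEM + 10% FBS and exposed to six concentrations from 200 to 0.2 μM, in triplicate, for 3 days at 37 °C and 5% CO2. Viable cells were then measured by Calcein AM fluorescence after 1 h loading.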

Another series concerns B16. Nature of the series: In vitro cytotoxic activity, Calcein AM. Particulars: three days. The series is classed as cell-based.
In series [3] the test system is human melanoma cell line Arn8 (p53-responsive reporter). Description: p53-dependent transcriptional activity, β-galactosidase reporter. The series is classed as cell-based. Particulars: concentration inducing maximum of β-galactosidase activity. The method, then: Cell lines established from the human cervical carcinoma (HeLa), human breast carcinoma (MCF-7, BT549 and BR474), human osteosarcoma (HOS), human colon carcinoma (HT29), murine fibroblasts (T221acZ) and the human melanoma (Arn8) cell lines were cultured in Dubecco's Modified Eagle Medium (DMEM) supplemented with 10% fetal bovine serum. Tested compounds were added from 50 mM stock solution in dimethyl-sulphoxide (DMSO) into the culture medium at final concentration 20 μM. Control cells received an equivalent volume of DMSO.
β-galactosidase activity of human melanoma cell line […] T221acZ (both stabile transfected with a p53-responsive reporter construct pRGCΔfoslacZ) (Frebung et al., Cancer Res., 52, 1992-6976) was determined. For the determination of total β-galactosidase activity, cells were lysed by 3 freeze-thaw cycles in 0.25 M Tris pH 7.5, and lysates were assayed as described by Sambrook et al., Mol. cloning, New York, 1989.
Effect of 25 and related compounds on activation of p53 protein was also analyzed in human melanoma cell line Arn8 and murine fibroblast cell line T22LacZ expressing β-galactosidase under control of p53 responsive promoter. Induction of wt p53 in these cells treated with 20 μM 25 (6, 12 and 24 hrs) leads to activation of responsive promoter and consequently to expression of β-galactosidase. Arn8 and T221acZ cells treated with 25 were fixed and examined microscopically for β-galactosidase activity using X-gal substrate leading to about 25% blue-colored cells compared to less than 1% of blue-colored cells in DMSO-treated control cells (data not shown). The total β-galactosidase activity in Arn8 cells was also assessed using colorimetric assay.

The target in a further series is MMK1 protein kinase (Vicia faba, UniProt A0AAV1B7B8). Description: MMK1 protein kinase activity. The series is classed as biochemical. In outline: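 Plant CDK was purified from extracts on p13^suc1-beads or by anti-cdc2a-MS immunopurification, and MMK1 was immunopurified from Vicia faba extracts. Kinase activity was read as radioactivity incorporated into histone H1 or myelin basic protein, quantified by phosphoimager.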
Chain of MMK1 protein kinase (A0AAV1B7B8 1-394): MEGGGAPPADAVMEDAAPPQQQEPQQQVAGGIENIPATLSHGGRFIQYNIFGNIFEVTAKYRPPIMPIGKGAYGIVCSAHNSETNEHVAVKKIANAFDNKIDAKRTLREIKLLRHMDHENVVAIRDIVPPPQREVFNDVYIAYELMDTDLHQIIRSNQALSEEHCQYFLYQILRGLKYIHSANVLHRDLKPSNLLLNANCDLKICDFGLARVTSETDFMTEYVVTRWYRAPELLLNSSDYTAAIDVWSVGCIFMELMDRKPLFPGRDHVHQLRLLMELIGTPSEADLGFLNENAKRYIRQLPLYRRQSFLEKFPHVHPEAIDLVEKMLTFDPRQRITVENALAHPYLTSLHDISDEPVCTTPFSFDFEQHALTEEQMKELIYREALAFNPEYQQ

Another series relates to normal human lymphocytes. Nature of the series: Immunosuppressive activity, 3H-thymidine incorporation in concanavalin A activated lymphocytes. Particulars: Lymphocyte, 72 hours, [3H]-TdR, read-out: Human lymphocytes ED50. Format: cell-based.
Series [4] deals with Cytokinin-dependent tobacco callus Nicotiana tabacum L. cv. Wisconsins 38. Nature of the series: Tobacco callus bioassay for cytotoxicity (herbicidal activity). The series is classed as cell-based. Particulars: Nicotiana tabacum, 672 h. In outline:
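Compounds were prepared in DMSO as a 10^−3 M stock in water. Growth inhibition was scored from fresh callus weight gain after four weeks, with five replicates and the test run at least twice.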

Another series concerns the target IκB-α kinase. Description: IκB-α kinase inhibition, in vitro kinase assay. Format: biochemical.
A further series concerns the target cdk1/cyclin B (CDC2) (Homo sapiens, UniProt P06493). Description: CDK inhibition assay, cdk1/cyclin B (CDC2) kinase, histone phosphorylation. The series is classed as biochemical. In a few lines:
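Human cdk1/cyclin B activity measured with 1 mg/ml histone substrate, 15 μM ATP plus [γ-32P]ATP, in HEPES pH 7.4 buffer with 10 mM MgCl2. Phosphorylation quantified by phosphorimaging; activity expressed as % of maximum, IC50 from dose-response curves by graphic analysis.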

A further series concerns β-adrenergic receptors. Nature of the series: Modulation of isoproterenol-induced cAMP synthesis in rat C6 glioma. The series is classed as cell-based. Particulars: cAMP synthesis induced by 5 μM (−) isoproterenol, simultaneous addition, 30 min. Here is the method:
Mechanism of action of novel compounds is presented on FIG. 3. Rat C6 glioma (ATCC N° CCL107) was cultivated in monolayer in serum-free chemically defined medium containing Ham's F10/minimal essential medium (1:1 vol/vol), 2 mM L-glutamine, 1% (vol/vol) minimal essential medium vitamins (100×), 1% (vol/vol) minimal essential medium nonessential amino acids (100×), 100 U/ml penicillin, 100 μg/ml streptomycin and 30 nM sodium selenide. Incubation was at 37° C. in a humidified atmosphere. Assays were performed in the logarithmic growth phase at a density of 2.5×10^5 cells/cm^2. Intracellular cAMP synthesis was induced by addition of 5 μM (−) isoproterenol. After 30 min incubation at 37° C. the medium was removed and the cellular amount of cAMP determined using the cAMP-enzyme immunoassay kit of Amersham. The I50 is determined from a dose-response curve in duplicate.
The effect of seven purine-analogs was measured after simultaneous addition with isoproterenol.

[5] abbreviates: read-out: 10^−5 M BAP IC50, 10^−5 M 6-benzylaminopurine, four weeks.
Where [6] appears, read: read-out: 10^−6 M BAP IC50, 10^−6 M 6-benzylaminopurine, four weeks.

pEC50, pIC50: −log10 of the molar value. Where two headings read alike, the source gives them in different places. Where only a bound is given, the exact number is not on record here.

Chain of cdk1/cyclin B (CDC2) (P06493 whole entry, species assumed): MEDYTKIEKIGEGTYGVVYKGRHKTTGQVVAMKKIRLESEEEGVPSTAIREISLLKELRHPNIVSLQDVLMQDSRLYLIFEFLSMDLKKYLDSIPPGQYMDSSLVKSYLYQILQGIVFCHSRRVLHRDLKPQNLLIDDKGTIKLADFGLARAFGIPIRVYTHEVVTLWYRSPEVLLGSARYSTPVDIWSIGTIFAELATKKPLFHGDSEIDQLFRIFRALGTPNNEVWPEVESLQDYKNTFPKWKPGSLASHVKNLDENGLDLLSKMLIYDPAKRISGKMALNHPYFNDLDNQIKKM
Chain of cdk1/cyclin B (CDC2) (P14635 whole entry partner, species assumed): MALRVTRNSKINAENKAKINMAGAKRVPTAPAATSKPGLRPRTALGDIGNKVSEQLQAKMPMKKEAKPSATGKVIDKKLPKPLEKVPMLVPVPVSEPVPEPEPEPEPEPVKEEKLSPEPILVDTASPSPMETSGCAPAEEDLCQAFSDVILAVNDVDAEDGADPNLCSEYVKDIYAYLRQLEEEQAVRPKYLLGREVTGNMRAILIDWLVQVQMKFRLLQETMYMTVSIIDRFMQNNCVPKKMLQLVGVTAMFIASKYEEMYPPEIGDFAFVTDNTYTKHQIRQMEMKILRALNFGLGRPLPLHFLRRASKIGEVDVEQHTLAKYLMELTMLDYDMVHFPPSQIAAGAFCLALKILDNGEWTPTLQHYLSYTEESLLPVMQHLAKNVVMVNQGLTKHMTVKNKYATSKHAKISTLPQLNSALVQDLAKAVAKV
Chain of cdc2a-MS protein (plant CDK, cdc2Ms kinase) (A0AAV0YZ35 1-294): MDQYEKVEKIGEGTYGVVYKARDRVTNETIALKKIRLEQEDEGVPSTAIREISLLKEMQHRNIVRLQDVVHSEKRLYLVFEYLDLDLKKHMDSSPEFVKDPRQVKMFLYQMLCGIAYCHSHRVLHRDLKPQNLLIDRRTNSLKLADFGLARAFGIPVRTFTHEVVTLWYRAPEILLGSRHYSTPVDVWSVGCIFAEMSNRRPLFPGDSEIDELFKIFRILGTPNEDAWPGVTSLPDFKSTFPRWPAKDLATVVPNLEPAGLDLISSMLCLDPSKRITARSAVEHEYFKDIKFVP

`CC(C)c1n[nH]c2c(NCc3cccc(Cl)c3O)nc(NCCCO)nc12`: the pIC50 in the series with DNA synthesis was 5.43.

As to `CC(C)c1n[nH]c2c(Nc3ccc(Cl)c(N)c3)nc(NCCCO)nc12`, the negative logarithm of the IC50 (pIC50) in the series on DNA synthesis is 6.40.

For `COc1cc(O)c(CNc2nc(N[C@@H](CO)C(C)C)nc3c(C(C)C)n[nH]c23)c(O)c1`, the pIC50 in [1] is 9.15. In addition, the GI50 is 1.2 µM in series [2] and 2.7 µM in the series on B16.

Take `Cc1n[nH]c2c(NCc3ccccc3)nc(N[C@@H](CO)C(C)C)nc12`: the GI50 is 2.8 µM in [2] (Homo sapiens, 72 h) and 4.3 µM in the series on B16 (Mus musculus, B16, 72 h). Further, in [3], the “Max β-Gal. Activtity Conc.” value came out at 6.5 µM. The molecule further had a pIC50 against MMK1 protein kinase of 6.40. In addition, the pEC50 in the series on normal human lymphocytes is 5.19.

For the molecule `CC[C@H](CO)Nc1nc(NCc2ccc(Cl)c(N)c2N)c2[nH]nc(C(C)C)c2n1`, the pIC50 was 4.31 in series [4] (setting [5]); 5.08 in series [4] (setting [6]); 6.40 on IκB-α kinase; 6.70 against cdk1/cyclin B (CDC2); 6.52 in the series on DNA synthesis.

In turn, `CC[C@H](CO)Nc1nc(NCc2cc(O)c(OC)cc2O)c2[nH]nc(C(C)C)c2n1` gave a pIC50 in series [1] of 8.70. The GI50 in series [2] was 3.5 µM; in the series with B16, 5.7 µM.

The molecule `CC(C)c1n[nH]c2c(Nc3cccc(Cl)c3)nc(Cl)nc12` [Example 11, 7-(3-chloroanilino)-5-chloro-3-isopropylpyrazolo[4,3-d]pyrimidine] returned a melting point of 257 to 259 °C.

`CC(C)c1n[nH]c2c(NCc3ccccc3)nc(NCCN)nc12` [Example 14, 7-benzylamino-5-(2-aminoethyl)amino-3-isopropylpyrazolo[4,3-d]pyrimidine] returned a melting point of 145 to 147 °C. For the same molecule, the “Effect: activation” value in the series on β-adrenergic receptors is given as 1.3-fold activation. In addition, the negative logarithm of the IC50 (pIC50) in [4] (setting [5]) is under 4.30. Further, the negative-log IC50 (pIC50) in [4] (setting [6]) is under 4.30. The molecule also showed a pIC50 against IκB-α kinase of 5.92. For the same molecule, the negative-log IC50 (pIC50) on cdk1/cyclin B (CDC2) is 6.40.

In turn, `COc1ccc(CNc2nc(NCc3ccc(OC)cc3)c3[nH]nc(C(C)C)c3n2)cc1` [Example 17, 5,7-di[(4-methoxybenzyl)amino]-3-isopropylpyrazolo[4,3-d]pyrimidine] showed a melting point of 60 to 85 °C.
